We go through three molecules from ChEMBL document CHEMBL5154644, “Design, Synthesis, and Structure-Activity Relationship Optimization of Pyrazolopyrimidine Amide Inhibitors of Phosphoinositide 3-Kinase γ (PI3Kγ)” (J Med Chem, 2022).

Each structure is given as a SMILES string.

CYP3A4, sequence (P08684 whole entry): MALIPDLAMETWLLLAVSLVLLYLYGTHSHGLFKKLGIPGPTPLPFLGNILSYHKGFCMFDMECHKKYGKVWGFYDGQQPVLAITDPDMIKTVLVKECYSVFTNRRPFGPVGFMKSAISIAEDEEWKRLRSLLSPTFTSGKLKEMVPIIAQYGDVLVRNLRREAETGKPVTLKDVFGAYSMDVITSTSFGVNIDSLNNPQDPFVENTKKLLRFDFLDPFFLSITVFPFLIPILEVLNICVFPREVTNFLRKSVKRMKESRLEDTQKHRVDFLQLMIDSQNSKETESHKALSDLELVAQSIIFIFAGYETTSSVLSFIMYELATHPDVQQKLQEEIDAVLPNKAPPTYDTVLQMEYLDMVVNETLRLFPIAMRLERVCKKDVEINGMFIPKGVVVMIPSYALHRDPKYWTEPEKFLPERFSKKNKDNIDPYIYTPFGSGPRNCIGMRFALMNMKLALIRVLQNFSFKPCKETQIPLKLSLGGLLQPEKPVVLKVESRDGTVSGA

Tested on in the first data set: not listed separately
Nature of the data set: Hepatic clearance in Sprague-Dawley rat by LC-MS/MS analysis. The data set is classed as ADME. Particulars: in vivo.
`C[C@@H](C1CC1)N1Cc2cc(-c3ccn4nc(N)c(C(=O)NC5CC5)c4n3)cc(S(C)(=O)=O)c2C1=O` came in with a CLH of 88.3 mL/min/kg.

Another data set deals with T1, Phosphatidylinositol 4,5-bisphosphate 3-kinase catalytic subunit gamma isoform (Homo sapiens, UniProt P48736). Kind of data set: Inhibition of PI3Kgamma (unknown origin) in […] stimulated human THP-1 cells assessed as reduction in Akt phosphorylation level at Ser473 residue preincubated for 60 mins followed by rhMCP-1 stimulation and measured after 2 mins by AlphaLisa assay. Format: cell-based.
T1 sequence (P48736 whole entry, canonical isoform): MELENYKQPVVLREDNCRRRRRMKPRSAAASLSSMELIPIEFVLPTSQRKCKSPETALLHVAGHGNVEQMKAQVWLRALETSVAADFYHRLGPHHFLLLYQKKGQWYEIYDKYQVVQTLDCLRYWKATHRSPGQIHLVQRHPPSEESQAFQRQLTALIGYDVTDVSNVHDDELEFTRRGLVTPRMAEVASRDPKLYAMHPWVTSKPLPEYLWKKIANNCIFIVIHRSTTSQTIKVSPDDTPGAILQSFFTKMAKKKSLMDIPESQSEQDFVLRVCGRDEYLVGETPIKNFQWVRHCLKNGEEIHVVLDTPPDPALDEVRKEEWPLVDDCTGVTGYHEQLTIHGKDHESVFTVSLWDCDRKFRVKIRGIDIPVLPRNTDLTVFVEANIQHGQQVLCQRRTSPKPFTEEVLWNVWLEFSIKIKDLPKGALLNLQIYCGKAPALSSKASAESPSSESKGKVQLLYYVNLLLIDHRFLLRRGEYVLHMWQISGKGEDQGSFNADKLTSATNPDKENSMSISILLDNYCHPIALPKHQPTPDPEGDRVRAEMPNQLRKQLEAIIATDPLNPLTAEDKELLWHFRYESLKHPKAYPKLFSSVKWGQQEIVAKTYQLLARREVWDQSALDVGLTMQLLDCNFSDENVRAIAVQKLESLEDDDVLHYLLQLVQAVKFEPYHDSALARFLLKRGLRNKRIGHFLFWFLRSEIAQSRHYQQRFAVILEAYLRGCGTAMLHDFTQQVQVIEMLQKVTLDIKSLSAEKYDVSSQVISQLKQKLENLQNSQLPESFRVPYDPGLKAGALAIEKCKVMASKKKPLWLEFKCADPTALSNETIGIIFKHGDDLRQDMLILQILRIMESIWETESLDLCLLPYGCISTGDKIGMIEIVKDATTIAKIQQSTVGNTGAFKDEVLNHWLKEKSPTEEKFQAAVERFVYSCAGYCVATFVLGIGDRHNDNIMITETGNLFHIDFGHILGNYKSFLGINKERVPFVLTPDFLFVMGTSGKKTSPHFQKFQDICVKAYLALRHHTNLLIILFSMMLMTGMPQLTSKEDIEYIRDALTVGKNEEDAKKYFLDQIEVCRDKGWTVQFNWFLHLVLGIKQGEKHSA
Conditions: not given
(In general: In Alpha technology, singlet oxygen from a donor bead excites a nearby acceptor bead.)
Take `C[C@@H](C1CC1)N1Cc2cc(-c3ccn4nc(N)c(C(=O)N[C@@H](CO)C5CC5)c4n3)cc(NS(C)(=O)=O)c2C1=O`: the IC50 is 33 nM.
On to `C[C@H](N1Cc2cc(-c3ccn4nc(N)c(C(=O)N[C@@H](CO)C5CC5)c4n3)cc(NS(C)(=O)=O)c2C1=O)C(F)(F)F`, for which the IC50 stood at 72 nM.
As to `C[C@@H](C1CC1)N1Cc2cc(-c3ccn4nc(N)c(C(=O)NC5CC5)c4n3)cc(S(C)(=O)=O)c2C1=O`, the 50% inhibitory concentration (IC50) is 43 nM.

Another data set has as its target T1, Phosphatidylinositol 4,5-bisphosphate 3-kinase catalytic subunit gamma isoform. Kind of data set: Inhibition of PI3Kgamma (unknown origin) using PIP2 as substrate preincubated for 1 hr followed by substrate addition and measured after 60 mins in presence of ATP by ADP-glo assay.
Conditions: not given
As to `C[C@@H](C1CC1)N1Cc2cc(-c3ccn4nc(N)c(C(=O)N[C@@H](CO)C5CC5)c4n3)cc(NS(C)(=O)=O)c2C1=O`, the IC50 worked out at 0.8 nM.
As to `C[C@H](N1Cc2cc(-c3ccn4nc(N)c(C(=O)N[C@@H](CO)C5CC5)c4n3)cc(NS(C)(=O)=O)c2C1=O)C(F)(F)F`, the IC50 came to 3.5 nM.
For `C[C@@H](C1CC1)N1Cc2cc(-c3ccn4nc(N)c(C(=O)NC5CC5)c4n3)cc(S(C)(=O)=O)c2C1=O`, the 50% inhibitory concentration (IC50) was 2.4 nM.

Tested on in the next data set: not listed separately
Kind of data set: Metabolic stability in human hepatocytes assessed as intrinsic clearance per 10^6 cells at 0.5 uM by LC-MS/MS analysis. Format: ADME, cell-based, Hepatocyte. Particulars: read-out: CLH.
Turning to `C[C@@H](C1CC1)N1Cc2cc(-c3ccn4nc(N)c(C(=O)N[C@@H](CO)C5CC5)c4n3)cc(NS(C)(=O)=O)c2C1=O`, the hepatocyte CLint at 0.5 µM worked out at 4.09 µL/min/1e6 cells.
Take `C[C@H](N1Cc2cc(-c3ccn4nc(N)c(C(=O)N[C@@H](CO)C5CC5)c4n3)cc(NS(C)(=O)=O)c2C1=O)C(F)(F)F`: the hepatocyte CLint at 0.5 µM came to 6.31 µL/min/1e6 cells.
On the same count and under the same terms, the result for `C[C@@H](C1CC1)N1Cc2cc(-c3ccn4nc(N)c(C(=O)NC5CC5)c4n3)cc(S(C)(=O)=O)c2C1=O` reads less than 1.2 µL/min/1e6 cells.

Tested on in another data set: not listed separately
Kind of data set: Metabolic stability in rat hepatocyte assessed as intrinsic clearance per 10^8 cells at 0.5 uM by LC-MS/MS analysis. Particulars: hepatocytes. Format: ADME, cell-based.
For `C[C@@H](C1CC1)N1Cc2cc(-c3ccn4nc(N)c(C(=O)N[C@@H](CO)C5CC5)c4n3)cc(NS(C)(=O)=O)c2C1=O`, the hepatocyte intrinsic clearance was less than 1.2 µL/min.
Take `C[C@H](N1Cc2cc(-c3ccn4nc(N)c(C(=O)N[C@@H](CO)C5CC5)c4n3)cc(NS(C)(=O)=O)c2C1=O)C(F)(F)F`: the hepatocyte intrinsic clearance was found to be 2.48 µL/min.
With `C[C@@H](C1CC1)N1Cc2cc(-c3ccn4nc(N)c(C(=O)NC5CC5)c4n3)cc(S(C)(=O)=O)c2C1=O`, the hepatocyte intrinsic clearance was less than 1.2 µL/min.

Another data set deals with T1, Phosphatidylinositol 4,5-bisphosphate 3-kinase catalytic subunit gamma isoform. Nature of the data set: Inhibition of PI3Kgamma in SDF-1alpha stimulated human whole blood assessed as reduction in phospho-AKT kinase activity preincubated for 1 hr followed by SDF-1alpha stimulation and measured after 2 mins by flow cytometric analysis. The data set is classed as tissue-based.
Conditions: not given
Background: Flow cytometry measures light scatter and fluorescence of single cells or particles in a stream.
With `C[C@@H](C1CC1)N1Cc2cc(-c3ccn4nc(N)c(C(=O)N[C@@H](CO)C5CC5)c4n3)cc(NS(C)(=O)=O)c2C1=O`, the IC50 was determined as 260 nM.
Regarding `C[C@H](N1Cc2cc(-c3ccn4nc(N)c(C(=O)N[C@@H](CO)C5CC5)c4n3)cc(NS(C)(=O)=O)c2C1=O)C(F)(F)F`, the concentration for half-maximal inhibition (IC50) is 1300 nM.

A further data set deals with Phosphatidylinositol 4,5-bisphosphate 3-kinase catalytic subunit alpha isoform (Homo sapiens, UniProt P42336). Kind of data set: Inhibition of PI3Kalpha (unknown origin) using PIP2 as substrate preincubated for 1 hr followed by substrate addition and measured after 60 mins in presence of ATP by ADP-glo assay.
Phosphatidylinositol 4,5-bisphosphate 3-kinase catalytic subunit alpha isoform, sequence (P42336 whole entry, canonical isoform): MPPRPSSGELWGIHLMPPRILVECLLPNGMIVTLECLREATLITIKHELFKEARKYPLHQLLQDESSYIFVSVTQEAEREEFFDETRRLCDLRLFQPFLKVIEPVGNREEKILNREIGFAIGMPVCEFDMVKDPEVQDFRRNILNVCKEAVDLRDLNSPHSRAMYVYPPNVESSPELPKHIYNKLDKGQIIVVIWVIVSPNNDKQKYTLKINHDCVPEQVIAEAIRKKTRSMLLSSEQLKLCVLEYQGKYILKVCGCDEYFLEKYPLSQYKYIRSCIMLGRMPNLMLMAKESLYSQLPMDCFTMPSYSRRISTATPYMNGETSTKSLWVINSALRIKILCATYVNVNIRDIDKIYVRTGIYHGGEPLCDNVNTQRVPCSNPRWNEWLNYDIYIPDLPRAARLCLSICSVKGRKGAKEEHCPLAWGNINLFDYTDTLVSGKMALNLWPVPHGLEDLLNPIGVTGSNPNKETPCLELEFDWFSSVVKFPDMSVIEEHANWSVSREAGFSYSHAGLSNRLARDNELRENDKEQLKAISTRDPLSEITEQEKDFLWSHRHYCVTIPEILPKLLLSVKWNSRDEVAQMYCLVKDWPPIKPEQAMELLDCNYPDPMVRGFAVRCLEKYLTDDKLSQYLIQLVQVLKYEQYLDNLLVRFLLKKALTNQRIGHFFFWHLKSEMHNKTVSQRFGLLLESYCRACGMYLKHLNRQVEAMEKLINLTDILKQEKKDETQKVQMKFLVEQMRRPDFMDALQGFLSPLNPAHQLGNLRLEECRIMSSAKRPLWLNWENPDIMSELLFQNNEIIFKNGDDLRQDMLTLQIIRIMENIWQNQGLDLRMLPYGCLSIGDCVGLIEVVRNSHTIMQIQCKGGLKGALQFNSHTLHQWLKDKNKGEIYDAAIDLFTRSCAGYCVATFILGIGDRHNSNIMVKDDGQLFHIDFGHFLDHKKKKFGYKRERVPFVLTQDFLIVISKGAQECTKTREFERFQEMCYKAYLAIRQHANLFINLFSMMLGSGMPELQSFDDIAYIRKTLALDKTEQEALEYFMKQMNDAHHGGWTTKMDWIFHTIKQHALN
Conditions: not given
On to `C[C@@H](C1CC1)N1Cc2cc(-c3ccn4nc(N)c(C(=O)N[C@@H](CO)C5CC5)c4n3)cc(NS(C)(=O)=O)c2C1=O`, for which the 50% inhibitory concentration (IC50) stood at 1200 nM.
`C[C@H](N1Cc2cc(-c3ccn4nc(N)c(C(=O)N[C@@H](CO)C5CC5)c4n3)cc(NS(C)(=O)=O)c2C1=O)C(F)(F)F`: the IC50 was determined as 1640 nM.
As for `C[C@@H](C1CC1)N1Cc2cc(-c3ccn4nc(N)c(C(=O)NC5CC5)c4n3)cc(S(C)(=O)=O)c2C1=O`, the concentration for half-maximal inhibition (IC50) is 351 nM.

The next data set deals with T2, Phosphatidylinositol 4,5-bisphosphate 3-kinase catalytic subunit delta isoform (Homo sapiens, UniProt O00329).
T2 sequence (O00329 whole entry): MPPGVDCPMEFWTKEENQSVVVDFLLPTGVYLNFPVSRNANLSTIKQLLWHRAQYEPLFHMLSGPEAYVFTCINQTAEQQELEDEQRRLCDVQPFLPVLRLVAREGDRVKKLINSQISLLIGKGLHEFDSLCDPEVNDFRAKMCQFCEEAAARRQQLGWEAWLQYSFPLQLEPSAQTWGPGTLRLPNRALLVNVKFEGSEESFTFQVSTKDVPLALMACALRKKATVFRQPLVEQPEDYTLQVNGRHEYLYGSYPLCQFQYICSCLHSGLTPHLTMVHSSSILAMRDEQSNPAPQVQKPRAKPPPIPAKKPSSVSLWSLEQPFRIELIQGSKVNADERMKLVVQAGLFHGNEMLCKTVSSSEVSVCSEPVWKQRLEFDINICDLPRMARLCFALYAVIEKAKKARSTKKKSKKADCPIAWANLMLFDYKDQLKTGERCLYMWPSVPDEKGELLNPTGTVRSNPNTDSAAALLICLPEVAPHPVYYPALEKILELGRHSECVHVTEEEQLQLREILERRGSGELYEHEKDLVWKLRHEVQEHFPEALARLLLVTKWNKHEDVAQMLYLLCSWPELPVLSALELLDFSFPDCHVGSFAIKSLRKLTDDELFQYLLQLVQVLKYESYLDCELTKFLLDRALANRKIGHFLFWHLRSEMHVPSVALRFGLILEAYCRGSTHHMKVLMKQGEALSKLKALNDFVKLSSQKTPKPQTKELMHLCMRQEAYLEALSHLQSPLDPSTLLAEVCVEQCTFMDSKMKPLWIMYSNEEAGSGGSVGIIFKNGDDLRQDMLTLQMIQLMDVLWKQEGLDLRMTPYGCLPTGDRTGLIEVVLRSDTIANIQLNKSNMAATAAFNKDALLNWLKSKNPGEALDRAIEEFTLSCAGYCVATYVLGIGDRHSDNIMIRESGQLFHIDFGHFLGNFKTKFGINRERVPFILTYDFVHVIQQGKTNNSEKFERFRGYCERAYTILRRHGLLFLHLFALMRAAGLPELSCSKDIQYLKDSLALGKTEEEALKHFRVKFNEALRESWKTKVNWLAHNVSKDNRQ
Kind of data set: Inhibition of PI3Kdelta (unknown origin) using PIP2 as substrate preincubated for 1 hr followed by substrate addition and measured after 60 mins in presence of ATP by ADP-glo assay.
Conditions: not given
In general terms: ADP-Glo first removes unused ATP, then detects ADP through luciferase.
On to `C[C@@H](C1CC1)N1Cc2cc(-c3ccn4nc(N)c(C(=O)N[C@@H](CO)C5CC5)c4n3)cc(NS(C)(=O)=O)c2C1=O`, for which the 50% inhibitory concentration (IC50) turned out to be 991 nM.
In the case of `C[C@H](N1Cc2cc(-c3ccn4nc(N)c(C(=O)N[C@@H](CO)C5CC5)c4n3)cc(NS(C)(=O)=O)c2C1=O)C(F)(F)F`, the IC50 was 825 nM.
As to `C[C@@H](C1CC1)N1Cc2cc(-c3ccn4nc(N)c(C(=O)NC5CC5)c4n3)cc(S(C)(=O)=O)c2C1=O`, the half-maximal inhibitory concentration (IC50) is 560 nM.

For another data set, the species on record is Homo sapiens. Nature of the data set: Selectivity ratio of IC50 for inhibition of PI3Kalpha (unknown origin) to IC50 for inhibition of PI3Kgamma (unknown origin).
Conditions: not given
For `C[C@@H](C1CC1)N1Cc2cc(-c3ccn4nc(N)c(C(=O)N[C@@H](CO)C5CC5)c4n3)cc(NS(C)(=O)=O)c2C1=O`, the Ratio IC50 was found to be 1470.
Same read-out and setting: the result for `C[C@H](N1Cc2cc(-c3ccn4nc(N)c(C(=O)N[C@@H](CO)C5CC5)c4n3)cc(NS(C)(=O)=O)c2C1=O)C(F)(F)F` reads 474; that for `C[C@@H](C1CC1)N1Cc2cc(-c3ccn4nc(N)c(C(=O)NC5CC5)c4n3)cc(S(C)(=O)=O)c2C1=O`, 148.

The species named for a further data set is Homo sapiens. Nature of the data set: Selectivity ratio of IC50 for inhibition of PI3Kdelta (unknown origin) to IC50 for inhibition of PI3Kgamma (unknown origin).
Conditions: not given
With `C[C@H](N1Cc2cc(-c3ccn4nc(N)c(C(=O)N[C@@H](CO)C5CC5)c4n3)cc(NS(C)(=O)=O)c2C1=O)C(F)(F)F`, the Ratio IC50 was 238.
As to `C[C@@H](C1CC1)N1Cc2cc(-c3ccn4nc(N)c(C(=O)NC5CC5)c4n3)cc(S(C)(=O)=O)c2C1=O`, the Ratio IC50 is 236.

A further data set concerns the target CYP3A4 (Homo sapiens, UniProt P08684). Kind of data set: in vitro. Particulars: human liver microsomes, probe midazolam.
Description: Time dependent inhibition of CYP3A4 in human liver microsomes at 10 uM using midazolam as substrate preincubated for 30 mins in presence of NADPH by LC/MS/MS analysis relative to control
In turn, `C[C@@H](C1CC1)N1Cc2cc(-c3ccn4nc(N)c(C(=O)N[C@@H](CO)C5CC5)c4n3)cc(NS(C)(=O)=O)c2C1=O` registered an inhibition at 30 min, 10 µM of 35%.
Take `C[C@@H](C1CC1)N1Cc2cc(-c3ccn4nc(N)c(C(=O)NC5CC5)c4n3)cc(S(C)(=O)=O)c2C1=O`: the inhibition at 30 min, 10 µM is 4%.

A word on the IC50: it is the point on the concentration scale where inhibition reaches its midpoint. By inhibition is commonly meant the share of the control response that was lost under treatment. Higher therefore signals a strong effect.
